Data reported in patent US5538976A, “Substituted tertiary amino compound or salt thereof” (Yamanouchi Pharmaceutical Co., Ltd., priority 1992, dated 1996).

Tests used:
aromatase [1] = molecular target: T1, aromatase (Rattus norvegicus, UniProt P22443); assay: biochemical
T1 sequence (P22443 1-508): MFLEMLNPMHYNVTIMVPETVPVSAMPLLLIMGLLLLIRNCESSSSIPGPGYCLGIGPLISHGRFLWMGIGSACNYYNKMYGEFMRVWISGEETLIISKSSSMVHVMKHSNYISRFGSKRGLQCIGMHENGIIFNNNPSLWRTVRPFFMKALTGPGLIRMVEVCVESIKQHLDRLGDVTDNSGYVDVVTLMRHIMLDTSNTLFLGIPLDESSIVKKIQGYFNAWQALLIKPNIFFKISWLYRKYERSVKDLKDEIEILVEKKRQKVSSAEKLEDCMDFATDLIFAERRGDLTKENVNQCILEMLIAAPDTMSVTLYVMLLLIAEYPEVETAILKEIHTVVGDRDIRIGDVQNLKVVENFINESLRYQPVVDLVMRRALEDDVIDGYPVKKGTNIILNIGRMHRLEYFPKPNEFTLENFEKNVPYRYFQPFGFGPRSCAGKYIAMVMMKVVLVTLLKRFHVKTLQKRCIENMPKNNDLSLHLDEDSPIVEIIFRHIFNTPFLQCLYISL
From the text: IC50 of a test compound in aromatase inhibition was obtained from inhibition of ^3 H2 O released from [1,2-^3 H]-androstenedione in the microsome of a rat ovary.

estradiol biosynthesis = assay: In vivo inhibiting activity on estrogen production in rat (PMSG-primed, ovarian estradiol by RIA); details: po, per os, 3 hours after administration, read-out: inhibition on estradiol biosynthesis with respect to the control
Experimental: (b) In vivo inhibiting activity on estrogen production in rat:
PMSG (pregnant mare serum gonadotropin) (100 IU/rat) was subcutaneously injected to an immature female Wister rat weighing 60 g. After 72 hours from the injection, a suspension of a test compound in 0.5 ml of 20% polyethylene glycol aqueous solution was given to the rat per os. A 20% polyethylene glycol aqueous solution was administered to a control group. After 3 hours from the administration of the drug or placebo, the rat was decapitated and bled out, and the ovary was removed. The estradiol concentration in the ovary was measured by RIA.

[2] = tested on: dimethylbenzanthracene (DMBA)-induced tumor; assay: Antitumor activity in rat, DMBA-induced breast carcinoma; assay type: in vivo; details: orally, daily dose of from 0.04 to 1.0 mg/kg for 2 weeks, rats bearing breast carcinoma
Experimental: (c) Antitumor activity in rat:
The antitumor activity on breast carcinoma was measured in a dimethylbenzanthracene (DMBA)-induced tumor in a female Sprague-Dawlay rat.
This experimentation is commonly employed as a method for determining an antitumor activity in an animal model of breast carcinoma.

aromatase [3] = molecular target: T2, aromatase (Homo sapiens, UniProt P11511); assay: Inhibiting activity on aromatase of human placenta origin (microsome, 3H2O release from [1,2-3H]androstenedione); assay type: biochemical; details: in vitro, read-out: IC50 for in vitro aromatase inhibition
T2 construct: in the microsome of a human placenta; from tissue; host or cells: human placenta microsomes
T2 sequence (P11511 1-503): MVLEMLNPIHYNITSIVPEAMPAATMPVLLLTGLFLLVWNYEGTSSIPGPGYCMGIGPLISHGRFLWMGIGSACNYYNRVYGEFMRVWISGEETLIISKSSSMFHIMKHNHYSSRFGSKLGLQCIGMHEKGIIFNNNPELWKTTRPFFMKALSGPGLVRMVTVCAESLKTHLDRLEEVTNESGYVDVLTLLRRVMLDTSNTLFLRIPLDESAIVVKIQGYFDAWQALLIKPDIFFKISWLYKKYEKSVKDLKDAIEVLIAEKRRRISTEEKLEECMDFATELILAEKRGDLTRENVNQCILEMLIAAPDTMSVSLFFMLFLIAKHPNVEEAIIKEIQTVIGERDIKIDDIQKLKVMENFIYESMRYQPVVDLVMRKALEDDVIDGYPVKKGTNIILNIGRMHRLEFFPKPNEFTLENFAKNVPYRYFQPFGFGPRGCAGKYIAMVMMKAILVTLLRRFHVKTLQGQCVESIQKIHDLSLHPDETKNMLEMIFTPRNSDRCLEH
From the text: (a) Inhibiting activity on aromatase of human placenta origin:
Measured in accordance with the method described in Endocrine Research, Vol. 16, No. 2, p. 253 (1990).
The inhibiting activity of a test compound was obtained from inhibition of ^3 H2 O released from [1,2-^3 H]androstenedione in the microsome of a human placenta.
IC50 value for in vitro aromatase inhibition in the microsome of a human placenta was obtained according to the method (2)-(a).

EC50 (aromatase [1]) | IC50 (aromatase [1]) | IC50 (aromatase [3]) | SMILES | inhibition at 0.03 mg/kg (estradiol biosynthesis) | suppression or regression of tumors in the mammary gland [2]
< 50 nM | – | – | Fc1ccc(N(Cc2ccccc2)Cc2cccnc2)c(F)c1 [Comparative Compound 2, reference compound] | – | –
– | 0.22 nM | 0.036 nM | N#Cc1ccc(N(Cc2cc(F)cc(F)c2)c2cncnc2)cc1 [Example 34, 5-[N-(4-Cyanophenyl)-N-(3,5-difluorobenzyl)amino]pyrimidine] | 86% | suppression or regression of tumors
